# Results published in paper PMC4727778, “Synthesis and Antifungal Evaluation of Novel N-Alkyl Tetra- and Perhydroquinoline Derivatives” (Scientia Pharmaceutica, 2014).
# Structures can show the parent of a compound that is named as a salt.
# Key:
# Candida glabrata = assay: Microdilution assay (MIC); assay type: cell-based; details: Nakaseomyces glabratus, hydrochlorides used, arithmetic average of two determinations, read-out: Minimal inhibitory concentration (MIC)
# Procedure: (§1) For comparison, the N-undecylperhydroisoquinoline (C) was also tested here. For solubility reasons, the hydrochlorides were used in this assay (Table 2).
# Saccharomyces cerevisiae = assay: Microdilution assay (MIC); assay type: cell-based; details: hydrochlorides used, arithmetic average of two determinations, read-out: Minimal inhibitory concentration (MIC)
# Procedure: as §1
# Yarrowia lipolytica = assay: Microdilution assay (MIC); assay type: cell-based; details: hydrochlorides used, arithmetic average of two determinations, read-out: Minimal inhibitory concentration (MIC)
# Procedure: as §1
# [1] = tested on: human leukemia cell line (HL 60); assay: MTT test (cytotoxicity); assay type: cell-based; details: HL 60 cell line, arithmetic average of three determinations
# Procedure: The cytotoxicity of the compounds 3a–d, 5a–d, and 8b was determined in an MTT test against a human leukemia cell line (HL 60).
# Δ8,7-isomerase [2] = biological target: T1, Δ8,7-isomerase (Saccharomyces cerevisiae, UniProt P32352); assay: Whole-cell assay for identification of the target enzyme in ergosterol biosynthesis (sterol pattern by GLC-MS); assay type: cell-based; details: Candida glabrata and Saccharomyces cerevisiae incubated with test compound, lichesterol accumulation indicates Δ8,7-isomerase inhibition
# T1 construct: whole-cell assay for identification of the target enzyme in ergosterol biosynthesis; endogenous in cells; host or cells: Saccharomyces cerevisiae and Candida glabrata whole cells
# Procedure: The compounds 5c and 7 were also subjected to our whole-cell assay for identification of the target enzyme in ergosterol biosynthesis. In this assay, the strains Candida glabrata and Saccharomyces cerevisiae were incubated with the test compounds, and after cell lysis, the changes in the sterol pattern were analyzed by GLC-MS. The accumulation of the Δ8(9)-sterol lichesterol (ergosta-5,8,22-trien-3β-ol) clearly indicates an inhibition of the enzyme Δ8,7-isomerase.
# Δ8,7-isomerase [3] = tested on: Δ8,7-isomerase; set-up: method as in PMID 24464607; details: cited from earlier work
# [4] = tested on: Aspergillus niger (DSMZ-Nr. 1988); assay: Agar diffusion assay; assay type: cell-based; details: A. niger, GI = growth inhibition, read-out: diameter of zones of total inhibition
# Procedure: (§2) The resulting compounds and known compounds, 1-undecylpiperidine (7) and 1-decylpiperazine (8a), as well as 1-methyl-4-undecylpiperazine (8b) (prepared in the same way), were tested in an agar diffusion assay against Gram-positive (Staphylococcus equorum (DSMZ-Nr. 20675), Streptococcus entericus (DSZM-Nr. 14446)) and Gram-negative bacteria (Escherichia coli (DSMZ-Nr. 426), Pseudomonas marginalis (DSMZ-Nr. 7527)), as well as the fungi Yarrowia lipolytica (DSMZ-Nr. 1345), Candida glabrata (DSMZ-Nr.11226), Aspergillus niger (DSMZ-Nr. 1988), and Hyphopichia burtonii (DSMZ-Nr. 70663) (Table 1).
# [5] = tested on: Candida glabrata (DSMZ-Nr.11226); assay: Agar diffusion assay; assay type: cell-based; details: Nakaseomyces glabratus, C. glabrata, GI = growth inhibition, read-out: diameter of zones of total inhibition
# Procedure: as §2
# [6] = tested on: Escherichia coli (DSMZ-Nr. 426); assay: Agar diffusion assay; assay type: cell-based; details: E. coli, GI = growth inhibition, read-out: diameter of zones of total inhibition
# Procedure: as §2
# [7] = tested on: Hyphopichia burtonii (DSMZ-Nr. 70663); assay: Agar diffusion assay; assay type: cell-based; details: H. burtonii, GI = growth inhibition, read-out: diameter of zones of total inhibition
# Procedure: as §2
# [8] = tested on: Pseudomonas marginalis (DSMZ-Nr. 7527); assay: Agar diffusion assay; assay type: cell-based; details: P. marginalis, GI = growth inhibition, read-out: diameter of zones of total inhibition
# Procedure: as §2
# [9] = tested on: Staphylococcus equorum (DSMZ-Nr. 20675); assay: Agar diffusion assay; assay type: cell-based; details: read-out: diameter of zones of total inhibition
# Procedure: as §2
# [10] = tested on: Streptococcus entericus (DSZM-Nr. 14446); assay: Agar diffusion assay; assay type: cell-based; details: S. entericus, GI = growth inhibition, read-out: diameter of zones of total inhibition
# Procedure: as §2
# [11] = tested on: Yarrowia lipolytica (DSMZ-Nr. 1345); assay: Agar diffusion assay; assay type: cell-based; details: Y. lipolytica, GI = growth inhibition, read-out: diameter of zones of total inhibition
# Procedure: as §2
# Candida spp. = tested on: Candida spp.; set-up: method as in earlier work; details: printed in the Candida glabrata column; cited from earlier work
# T1 sequence (P32352 whole entry, stated change not applied): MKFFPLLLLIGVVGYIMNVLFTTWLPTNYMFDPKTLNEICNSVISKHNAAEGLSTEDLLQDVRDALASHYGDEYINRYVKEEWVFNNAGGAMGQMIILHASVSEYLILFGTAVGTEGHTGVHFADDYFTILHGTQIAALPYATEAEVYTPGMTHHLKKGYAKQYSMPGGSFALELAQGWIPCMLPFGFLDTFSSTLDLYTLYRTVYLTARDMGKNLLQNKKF
compound,measurement,setting,value
"CCCCCCCCCN1CCC[C@@H]2CCCC[C@H]21 (racemic) (as salt: hydrochloride) [Compound 5a, (±)-trans-1-Nonyldecahydroquinoline hydrochloride]",melting point,,130 °C
"CCCCCCCCCCN1CCC[C@@H]2CCCC[C@H]21 (racemic) (as salt: hydrochloride) [Compound 5b, (±)-trans-1-Decyldecahydroquinoline hydrochloride]",melting point,,128 °C
"CCCCCCCCCCCN1CCC[C@@H]2CCCC[C@H]21 (racemic) (as salt: hydrochloride) [Compound 5c, (±)-trans-1-Undecyldecahydroquinoline hydrochloride]",melting point,,119 °C
"CCCCCCCCCCCCN1CCC[C@@H]2CCCC[C@H]21 (racemic) (as salt: hydrochloride) [Compound 5d, (±)-trans-1-Dodecyldecahydroquinoline hydrochloride]",melting point,,113 °C
"CCCCCCCCCN1CCC[C@@H]2CCCC[C@H]21 (racemic) [Compound 5a, (±)-trans-1-Nonyldecahydroquinoline hydrochloride]",MIC,Candida glabrata,50 µg/mL
same,MIC,Saccharomyces cerevisiae,2.5 µg/mL
same,MIC,Yarrowia lipolytica,7.5 µg/mL
same,IC50,[1],22 µM
"CCCCCCCCCCN1CCC[C@@H]2CCCC[C@H]21 (racemic) [Compound 5b, (±)-trans-1-Decyldecahydroquinoline hydrochloride]",MIC,Candida glabrata,37.5 µg/mL
same,MIC,Saccharomyces cerevisiae,1 µg/mL
same,MIC,Yarrowia lipolytica,2.5 µg/mL
same,IC50,[1],7 µM
"CCCCCCCCCCCN1CCC[C@@H]2CCCC[C@H]21 (racemic) [Compound 5c, (±)-trans-1-Undecyldecahydroquinoline hydrochloride]",MIC,Candida glabrata,25 µg/mL
same,MIC,Saccharomyces cerevisiae,0.25 µg/mL
same,MIC,Yarrowia lipolytica,5 µg/mL
same,IC50,[1],7 µM
same,change in sterol pattern / target enzyme in ergosterol biosynthesis,"Δ8,7-isomerase [2]",accumulation of lichesterol
same,change in sterol pattern / target enzyme in ergosterol biosynthesis,"Δ8,7-isomerase [2]; listed as N-undecylperhydroquinoline","inhibitor of Δ8,7-isomerase"
"CCCCCCCCCCCCN1CCC[C@@H]2CCCC[C@H]21 (racemic) [Compound 5d, (±)-trans-1-Dodecyldecahydroquinoline hydrochloride]",MIC,Candida glabrata,5 µg/mL
same,MIC,Saccharomyces cerevisiae,2.5 µg/mL
same,MIC,Yarrowia lipolytica,2.5 µg/mL
same,IC50,[1],6 µM
"CCCCCCCCCCCN1CC[C@H]2CCCC[C@@H]2C1 (relative stereo) [C, N-n-undecyl-trans-decahydroisoquinoline, reference compound]",MIC,Candida glabrata,5 µg/mL
same,MIC,Saccharomyces cerevisiae,0.1 µg/mL
same,MIC,Yarrowia lipolytica,1.75 µg/mL
same,antifungal mechanism (enzyme inhibited),"Δ8,7-isomerase [3]","potent antifungal inhibiting the enzyme Δ8,7-isomerase"
"CCCCCCCCCN1CCCc2ccccc21.Cl [Compound 3a, 1-Nonyl-1,2,3,4-tetrahydroquinoline hydrochloride]",IC50,[1],19 µM
same,melting point,,65 °C
"CCCCCCCCCCN1CCCc2ccccc21.Cl [Compound 3b, 1-Decyl-1,2,3,4-tetrahydroquinoline hydrochloride]",IC50,[1],60 µM
same,melting point,,61 °C
"CCCCCCCCCCCN1CCCc2ccccc21.Cl [Compound 3c, 1-Undecyl-1,2,3,4-tetrahydroquinoline hydrochloride]",IC50,[1],16 µM
same,melting point,,52 °C
"CCCCCCCCCCCCN1CCCc2ccccc21.Cl [Compound 3d, 1-Dodecyl-1,2,3,4-tetrahydroquinoline hydrochloride]",IC50,[1],15 µM
same,melting point,,49 °C
"CCCCCCCCCCCC(=O)N1CCCc2ccccc21 [Compound 6, N-Dodecanoyl-1,2,3,4-tetrahydroquinoline]",zone of inhibition at 50 µg/disc,[4],0 mm
same,zone of inhibition at 50 µg/disc,[5],0 mm
same,zone of inhibition at 50 µg/disc,[6],0 mm
same,zone of inhibition at 50 µg/disc,[7],0 mm
same,zone of inhibition at 50 µg/disc,[8],0 mm
same,zone of inhibition at 50 µg/disc,[9],0 mm
same,zone of inhibition at 50 µg/disc,[10],0 mm
same,zone of inhibition at 50 µg/disc,[11],0 mm
same,melting point,,37 °C
"CCCCCCCCCCCN1CCCCC1 [Compound 7, 1-undecylpiperidine, reference compound]",zone of inhibition at 50 µg/disc,[4],0 mm
same,zone of inhibition at 50 µg/disc,[5],8 mm
same,zone of inhibition at 50 µg/disc,[6],7 mm
same,zone of inhibition at 50 µg/disc,[7],12 mm
same,zone of inhibition at 50 µg/disc,[8],8 mm
same,zone of inhibition at 50 µg/disc,[9],13 mm
same,zone of inhibition at 50 µg/disc,[10],17 mm
same,zone of inhibition at 50 µg/disc,[11],22 mm
same,MIC,Candida glabrata,12.5 µg/mL
same,MIC,Saccharomyces cerevisiae,1.75 µg/mL
same,MIC,Yarrowia lipolytica,7.5 µg/mL
same,change in sterol pattern / target enzyme in ergosterol biosynthesis,"Δ8,7-isomerase [2]",accumulation of lichesterol
"CCCCCCCCCCN1CCNCC1 [Compound 8a, 1-decylpiperazine, reference compound]",zone of inhibition at 50 µg/disc,[4],20 mm
same,zone of inhibition at 50 µg/disc,[5],8 mm
same,zone of inhibition at 50 µg/disc,[6],7 mm
same,zone of inhibition at 50 µg/disc,[7],25 mm
same,zone of inhibition at 50 µg/disc,[8],8 mm
same,zone of inhibition at 50 µg/disc,[9],13 mm
same,zone of inhibition at 50 µg/disc,[10],17 mm
same,zone of inhibition at 50 µg/disc,[11],22 mm
same,MIC,Candida glabrata,45 µg/mL
same,MIC,Saccharomyces cerevisiae,5 µg/mL
same,MIC,Yarrowia lipolytica,10 µg/mL
"CCCCCCCCCCCN1CCN(C)CC1 [Compound 8b, 1-methyl-4-undecylpiperazine, reference compound]",zone of inhibition at 50 µg/disc,[4],12 mm
same,zone of inhibition at 50 µg/disc,[5],11 mm
same,zone of inhibition at 50 µg/disc,[6],10 mm
same,zone of inhibition at 50 µg/disc,[7],14 mm
same,zone of inhibition at 50 µg/disc,[8],15 mm
same,zone of inhibition at 50 µg/disc,[9],18 mm
same,zone of inhibition at 50 µg/disc,[10],15 mm
same,zone of inhibition at 50 µg/disc,[11],25 mm
same,MIC,Candida glabrata,25 µg/mL
same,MIC,Saccharomyces cerevisiae,50 µg/mL
same,MIC,Yarrowia lipolytica,10 µg/mL
same,IC50,[1],46 µM
"Clc1ccccc1C(c1ccccc1)(c1ccccc1)n1ccnc1 [clotrimazole, reference compound]",zone of inhibition at 50 µg/disc,[4],15 mm
same,zone of inhibition at 50 µg/disc,[5],13 mm
same,zone of inhibition at 50 µg/disc,[7],25 mm
same,zone of inhibition at 50 µg/disc,[11],15 mm
same,MIC90 Candida spp.,Candida spp.,1 (MIC90 Candida spp.) [17] µg/mL
OC(Cn1cncn1)(Cn1cncn1)c1ccc(F)cc1F [fluconazole],MIC90 Candida spp.,Candida spp.,32 (MIC90 Candida spp.) [17] µg/mL
nystatine B,MIC90 Candida spp.,Candida spp.,4 (MIC90 Candida spp.) [17] µg/mL
